Columns and labels:
[1] = target: T1, Protein cereblon/Tyrosine-protein kinase BTK (Homo sapiens, UniProt Q06187+Q96SW2); assay: PROTAC activity at CRBN/BTK in human Ramos cells assessed as degradation of BTK protein incubated for 4 hrs by HTRF assay; format: cell-based
Target sequence in this assay (Q06187 whole entry): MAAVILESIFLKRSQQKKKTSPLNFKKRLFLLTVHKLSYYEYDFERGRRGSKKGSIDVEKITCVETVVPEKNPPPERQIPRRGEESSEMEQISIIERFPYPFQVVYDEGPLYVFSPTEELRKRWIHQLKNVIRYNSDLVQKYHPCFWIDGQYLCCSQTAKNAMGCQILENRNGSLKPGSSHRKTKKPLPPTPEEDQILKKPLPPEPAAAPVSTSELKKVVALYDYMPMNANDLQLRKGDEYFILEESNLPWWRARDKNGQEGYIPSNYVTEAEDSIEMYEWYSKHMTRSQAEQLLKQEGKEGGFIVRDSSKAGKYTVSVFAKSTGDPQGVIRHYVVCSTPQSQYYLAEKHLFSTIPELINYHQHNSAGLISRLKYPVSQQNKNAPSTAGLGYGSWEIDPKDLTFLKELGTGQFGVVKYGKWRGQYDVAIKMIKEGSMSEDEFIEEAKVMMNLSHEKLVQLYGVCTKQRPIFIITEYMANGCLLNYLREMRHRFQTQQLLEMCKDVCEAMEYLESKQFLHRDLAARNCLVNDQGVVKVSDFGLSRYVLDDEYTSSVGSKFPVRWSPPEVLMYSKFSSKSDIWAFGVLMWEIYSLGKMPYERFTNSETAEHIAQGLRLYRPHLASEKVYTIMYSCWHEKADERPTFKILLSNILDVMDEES
Target sequence in this assay (Q96SW2 whole entry): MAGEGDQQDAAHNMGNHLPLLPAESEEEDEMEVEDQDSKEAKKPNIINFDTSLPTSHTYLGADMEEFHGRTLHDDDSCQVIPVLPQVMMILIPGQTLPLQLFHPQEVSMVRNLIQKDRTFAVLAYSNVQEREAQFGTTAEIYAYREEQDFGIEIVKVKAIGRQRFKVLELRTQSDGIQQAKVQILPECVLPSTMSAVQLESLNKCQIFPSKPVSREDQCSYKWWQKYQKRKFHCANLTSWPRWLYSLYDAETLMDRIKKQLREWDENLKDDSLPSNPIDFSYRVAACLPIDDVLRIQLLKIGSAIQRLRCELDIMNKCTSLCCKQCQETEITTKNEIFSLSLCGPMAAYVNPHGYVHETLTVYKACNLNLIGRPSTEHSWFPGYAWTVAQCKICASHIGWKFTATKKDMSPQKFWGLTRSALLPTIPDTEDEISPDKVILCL

[2] = target: T1, Protein cereblon/Tyrosine-protein kinase BTK; assay: PROTAC activity at CRBN/BTK in human Ramos cells assessed as maximal degradation of BTK protein incubated for 4 hrs by HTRF assay relative to control; format: cell-based
Target sequence in this assay (Q06187 2-659 limits assumed): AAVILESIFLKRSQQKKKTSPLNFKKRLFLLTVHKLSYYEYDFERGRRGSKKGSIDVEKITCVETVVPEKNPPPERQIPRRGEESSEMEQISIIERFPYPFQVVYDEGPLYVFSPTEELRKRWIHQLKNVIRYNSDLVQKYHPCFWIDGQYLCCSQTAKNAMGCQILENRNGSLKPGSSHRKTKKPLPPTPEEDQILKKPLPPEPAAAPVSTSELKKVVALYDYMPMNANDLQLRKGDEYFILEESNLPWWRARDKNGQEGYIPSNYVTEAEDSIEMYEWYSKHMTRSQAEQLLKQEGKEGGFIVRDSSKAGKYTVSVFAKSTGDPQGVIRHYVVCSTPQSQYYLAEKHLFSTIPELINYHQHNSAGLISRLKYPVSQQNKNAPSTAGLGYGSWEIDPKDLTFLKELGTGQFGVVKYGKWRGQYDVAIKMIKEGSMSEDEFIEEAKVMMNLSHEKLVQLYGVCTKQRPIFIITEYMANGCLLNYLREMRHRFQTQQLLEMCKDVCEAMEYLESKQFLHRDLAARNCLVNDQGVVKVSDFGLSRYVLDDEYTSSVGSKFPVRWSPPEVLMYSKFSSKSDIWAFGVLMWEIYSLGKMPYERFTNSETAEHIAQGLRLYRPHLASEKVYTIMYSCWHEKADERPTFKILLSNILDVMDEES
Target sequence in this assay (Q96SW2 whole entry partner): as the sequence (Q96SW2 whole entry) above

[3] = target: T1, Protein cereblon/Tyrosine-protein kinase BTK; assay: PROTAC activity at CRBN/BTK in human TMD8 cells assessed as degradation of BTK protein incubated for 4 hrs by HTRF assay; format: cell-based
Target sequence in this assay (Q06187 whole entry): as the sequence (Q06187 whole entry) above
Target sequence in this assay (Q96SW2 whole entry): as the sequence (Q96SW2 whole entry) above

[4] = target: T1, Protein cereblon/Tyrosine-protein kinase BTK; assay: PROTAC activity at CRBN/BTK in human TMD8 cells assessed as maximal degradation of BTK protein incubated for 4 hrs by HTRF assay relative to control; format: cell-based
Target sequence in this assay (Q06187 2-659 limits assumed): as the sequence (Q06187 2-659 limits assumed) above
Target sequence in this assay (Q96SW2 whole entry partner): as the sequence (Q96SW2 whole entry) above

[5] = target: T2, Protein cereblon/Tyrosine-protein kinase BTK (Mus musculus) (UniProt P35991+Q8C7D2); assay: In vivo protac activity at CRBN/BTK in BALB/c mouse assessed as remaining BTK protein in blood at 3 mg/kg,po administration measured after 6 hrs by flow cytomtery relative to control; format: functional, organism-based
T2 sequence (P35991 whole entry, looked up): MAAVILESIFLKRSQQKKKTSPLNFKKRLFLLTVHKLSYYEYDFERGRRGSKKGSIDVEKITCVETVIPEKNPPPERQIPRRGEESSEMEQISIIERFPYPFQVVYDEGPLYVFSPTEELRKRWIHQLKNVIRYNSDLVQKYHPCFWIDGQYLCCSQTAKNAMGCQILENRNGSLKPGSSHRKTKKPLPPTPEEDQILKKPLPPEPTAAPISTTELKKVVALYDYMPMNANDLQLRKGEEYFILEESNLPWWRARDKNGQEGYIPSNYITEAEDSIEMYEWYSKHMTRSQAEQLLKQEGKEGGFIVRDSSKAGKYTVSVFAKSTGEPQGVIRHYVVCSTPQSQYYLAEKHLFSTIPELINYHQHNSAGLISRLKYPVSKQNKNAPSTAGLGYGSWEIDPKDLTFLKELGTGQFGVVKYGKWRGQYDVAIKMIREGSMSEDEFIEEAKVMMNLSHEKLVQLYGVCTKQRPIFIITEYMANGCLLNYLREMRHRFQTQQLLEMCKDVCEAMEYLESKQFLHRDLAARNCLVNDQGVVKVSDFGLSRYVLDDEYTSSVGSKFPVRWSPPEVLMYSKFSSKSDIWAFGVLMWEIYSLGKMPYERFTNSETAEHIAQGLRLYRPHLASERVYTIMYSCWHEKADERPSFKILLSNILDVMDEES
T2 sequence (Q8C7D2 whole entry, looked up): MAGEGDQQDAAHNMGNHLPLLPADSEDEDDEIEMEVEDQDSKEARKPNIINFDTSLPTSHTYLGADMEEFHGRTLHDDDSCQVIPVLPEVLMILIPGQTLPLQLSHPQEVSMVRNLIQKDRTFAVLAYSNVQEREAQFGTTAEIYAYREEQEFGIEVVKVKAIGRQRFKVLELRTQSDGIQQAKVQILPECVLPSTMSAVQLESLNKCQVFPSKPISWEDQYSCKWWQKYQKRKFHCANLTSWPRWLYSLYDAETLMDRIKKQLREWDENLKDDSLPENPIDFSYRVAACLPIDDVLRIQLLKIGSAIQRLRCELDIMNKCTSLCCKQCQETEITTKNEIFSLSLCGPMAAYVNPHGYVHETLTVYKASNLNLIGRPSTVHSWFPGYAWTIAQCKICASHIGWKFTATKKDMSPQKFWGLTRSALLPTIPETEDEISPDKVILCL

[6] = target: T2, Protein cereblon/Tyrosine-protein kinase BTK (Mus musculus); assay: In vivo protac activity at CRBN/BTK in BALB/c mouse assessed as remaining BTK protein in splenocyte at 3 mg/kg,po administration measured after 6 hrs by HTRF assay relative to control; format: functional, organism-based
[7] = target: T3, Protein cereblon/Zinc finger protein Aiolos (Homo sapiens, UniProt Q96SW2+Q9UKT9); assay: PROTAC activity at CRBN/IKZF3 in human T cell assessed as degradation of IKZF3 protein incubated for 24 hrs by flow cytometry; format: cell-based
Target sequence in this assay (Q96SW2 whole entry): as the sequence (Q96SW2 whole entry) above
Target sequence in this assay (Q9UKT9 whole entry): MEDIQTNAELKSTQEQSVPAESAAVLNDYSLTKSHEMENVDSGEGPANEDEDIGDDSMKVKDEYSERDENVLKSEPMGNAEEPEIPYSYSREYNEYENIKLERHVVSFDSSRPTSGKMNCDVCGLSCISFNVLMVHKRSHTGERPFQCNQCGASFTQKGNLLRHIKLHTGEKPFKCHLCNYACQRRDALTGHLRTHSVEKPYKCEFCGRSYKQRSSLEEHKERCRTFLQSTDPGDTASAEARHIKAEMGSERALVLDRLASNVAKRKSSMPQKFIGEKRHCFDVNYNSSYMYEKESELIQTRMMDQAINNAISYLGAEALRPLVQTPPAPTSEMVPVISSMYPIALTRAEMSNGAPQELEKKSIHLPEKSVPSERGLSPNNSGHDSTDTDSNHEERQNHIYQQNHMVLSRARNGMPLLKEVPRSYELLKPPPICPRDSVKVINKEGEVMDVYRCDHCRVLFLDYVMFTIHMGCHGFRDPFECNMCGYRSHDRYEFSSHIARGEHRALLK

[8] = target: T3, Protein cereblon/Zinc finger protein Aiolos; assay: PROTAC activity at CRBN/IKZF3 in human T cell assessed as maximal degradation of IKZF3 protein incubated for 24 hrs by flow cytometry relative to control; format: cell-based
Target sequence in this assay (Q96SW2 whole entry, looked up): as the sequence (Q96SW2 whole entry) above
Target sequence in this assay (Q9UKT9 whole entry, looked up): as the sequence (Q9UKT9 whole entry) above

Compound	DC50 [1] [nM]	Emax [2] [%]	DC50 [3] [nM]	Emax [4] [%]	Activity [5] [%]	DC50 [7] [nM]	Emax [8] [%]	Activity [6] [%]
CN1CCN([C@@H]2CCCN(c3cnc(C(N)=O)c(Nc4ccc(C5CCN(C[C@H]6CCN(c7ccc8c(c7)CN(C7CCC(=O)NC7=O)C8=O)C6)CC5)cc4)n3)C2)C1=O (stereo partly drawn)	–	–	0.25	96	49	–	–	–
CN1CCN([C@@H]2CCCN(c3cnc(C(N)=O)c(Nc4ccc(C5(C)CCN(C[C@H]6CCN(c7ccc8c(c7)C(=O)N(C7CCC(=O)NC7=O)C8=O)C6)CC5)cc4)n3)C2)C1=O (stereo partly drawn)	–	–	0.6	96	–	–	–	27
CN1CCN([C@@H]2CCCN(c3cnc(C(N)=O)c(Nc4ccc(C5CCN(CC6CCN(c7ccc8c(c7)C(=O)N(C7CCC(=O)NC7=O)C8=O)CC6)CC5)cc4)n3)C2)C1=O (stereo partly drawn)	0.75	94	–	–	–	28	74	–
CN1CCN([C@@H]2CCCN(c3cnc(C(N)=O)c(Nc4ccc(C5CCN(C[C@@H]6CCN(c7ccc8c(c7)C(=O)N(C7CCC(=O)NC7=O)C8=O)C6)CC5)cc4)n3)C2)C1=O (stereo partly drawn)	1.2	93	–	–	–	–	–	–
Nc1ncnc2c1c(-c1ccc(Oc3ccccc3)cc1)nn2C1CCN(C(=O)CCOCCOCCOCCOCCOCCNc2cccc3c2C(=O)N(C2CCC(=O)NC2=O)C3=O)CC1 (stereo not drawn)	32	88	–	–	–	–	–	–
NC(=O)c1ncc(-c2nccs2)nc1Nc1ccc(C2CCN(C[C@H]3CCN(c4ccc5c(c4)C(=O)N(C4CCC(=O)NC4=O)C5=O)C3)CC2)cc1 (stereo partly drawn)	–	–	1.7	95	24	–	–	–

More lines, main results first:

DC50 [1] [nM]	Emax [2] [%]	DC50 [3] [nM]	Emax [4] [%]	Activity [5] [%]	DC50 [7] [nM]	Emax [8] [%]	Compound	Activity [6] [%]
0.8	97	–	–	–	–	–	CN1CCN([C@@H]2CCCN(c3cnc(C(N)=O)c(Nc4ccc(C5CCN(CC6CN(c7ccc8c(c7)C(=O)N(C7CCC(=O)NC7=O)C8=O)C6)CC5)cc4)n3)C2)C1=O (stereo partly drawn)	–
–	–	17	76	–	–	–	CN1CCN([C@@H]2CCCN(c3cnc(C(N)=O)c(Nc4ccc(C5CCN(Cc6ccc7c(c6)C(=O)N(C6CCC(=O)NC6=O)C7=O)CC5)cc4)n3)C2)C1=O (stereo partly drawn)	–
> 10000	< 20	–	–	–	–	–	Cc1[nH]c2c(C(N)=O)ccc(N3CCC[C@H](NC(=O)CCCCCCc4cccc5c4CN(C4CCC(=O)NC4=O)C5=O)C3)c2c1C (stereo partly drawn)	–
0.9	96	1.3	96	–	–	–	CN1CCN([C@@H]2CCCN(c3cnc(C(N)=O)c(Nc4ccc(N5CCC6(CC5)CCN(c5ccc7c(c5)C(=O)N(C5CCC(=O)NC5=O)C7=O)CC6)cc4)n3)C2)C1=O (stereo partly drawn)	18
2880	51	–	–	–	–	–	Cc1cccc(C[C@@H](NC(=O)c2ccc3[nH]ncc3c2)C(=O)N2Cc3[nH]c4ccccc4c3C[C@@H]2C(=O)NCCOCCOCCOCCOCCOCCOCCOCCNc2cccc3c2C(=O)N(C2CCC(=O)NC2=O)C3=O)c1 (stereo partly drawn)	–
0.9	95	0.53	96	26	28	79	CN1CCN([C@@H]2CCCN(c3cnc(C(N)=O)c(Nc4ccc(C5CN(C6CCN(c7ccc8c(c7)C(=O)N(C7CCC(=O)NC7=O)C8=O)CC6)C5)cc4)n3)C2)C1=O (stereo partly drawn)	–
7	88	–	–	–	> 2000	31	CN1CCN([C@@H]2CCCN(c3cnc(C(N)=O)c(Nc4ccc(C5CCN(C[C@H]6CC[C@@H](Nc7cccc8c7C(=O)N(C7CCC(=O)NC7=O)C8=O)CC6)CC5)cc4)n3)C2)C1=O (stereo partly drawn)	–
2.4	95	1.2	96	68	14	86	CN1CCN([C@@H]2CCCN(c3cnc(C(N)=O)c(Nc4ccc5c(c4)CCN(CC4CCN(c6ccc7c(c6)C(=O)N(C6CCC(=O)NC6=O)C7=O)CC4)C5)n3)C2)C1=O (stereo partly drawn)	–
